Source: ChEMBL document CHEMBL4507305, “Data for DCP probe TP-024” (2021)

Legend:
Conditions in all cases: Compound concentration 1000.0 nM
[1] = target: Serine/threonine-protein kinase pim-2 (Homo sapiens) (UniProt Q9P1W9)
[2] = target: Serine/threonine-protein kinase 17A (Homo sapiens) (UniProt Q9UEE5)
[3] = system: Phosphatidylinositol 4,5-bisphosphate 3-kinase catalytic subunit alpha isoform (Homo sapiens), P42336 [H1047L]
[4] = target: Calcium-dependent protein kinase 1 (Plasmodium falciparum) (UniProt P62344)
[5] = target: Homeodomain-interacting protein kinase 1 (Homo sapiens) (UniProt Q86Z02)
[6] = target: Serine/threonine-protein kinase WNK2 (Homo sapiens) (UniProt Q9Y3S1)
[7] = target: STE20-like serine/threonine-protein kinase (Homo sapiens) (UniProt Q9H2G2)
[8] = target: Tyrosine-protein kinase receptor Tie-1 (Homo sapiens) (UniProt P35590)
[9] = target: Serine/threonine-protein kinase mTOR (Homo sapiens) (UniProt P42345)
[10] = target: Inhibitor of nuclear factor kappa-B kinase subunit epsilon (Homo sapiens) (UniProt Q14164)
[11] = target: NT-3 growth factor receptor (Homo sapiens) (UniProt Q16288)
[12] = target: Glycogen synthase kinase-3 alpha (Homo sapiens) (UniProt P49840)
[13] = target: Atypical kinase COQ8B, mitochondrial (Homo sapiens) (UniProt Q96D53)
[14] = target: Mitogen-activated protein kinase 14 (Homo sapiens) (UniProt Q16539)
[15] = target: Ephrin type-A receptor 5 (Homo sapiens) (UniProt P54756)
[16] = target: Activated CDC42 kinase 1 (Homo sapiens) (UniProt Q07912)
[17] = target: Tyrosine-protein kinase Fgr (Homo sapiens) (UniProt P09769)
[18] = target: Homeodomain-interacting protein kinase 4 (Homo sapiens) (UniProt Q8NE63)
[19] = target: Calcium/calmodulin-dependent protein kinase type IV (Homo sapiens) (UniProt Q16566)
[20] = target: Macrophage colony-stimulating factor 1 receptor (Homo sapiens) (UniProt P07333)
[21] = target: Ephrin type-A receptor 3 (Homo sapiens) (UniProt P29320)
[22] = target: NUAK family SNF1-like kinase 2 (Homo sapiens) (UniProt Q9H093)
[23] = system: Epidermal growth factor receptor (Homo sapiens), P00533 [L861Q]
[24] = target: SRSF protein kinase 1 (Homo sapiens) (UniProt Q96SB4)
[25] = system: Receptor-type tyrosine-protein kinase FLT3 (Homo sapiens), P36888 [UNDEFINED MUTATION]
[26] = target: Mitogen-activated protein kinase kinase kinase 20 (Homo sapiens) (UniProt Q9NYL2)
[27] = target: Protein kinase C iota type (Homo sapiens) (UniProt P41743)
[28] = target: Maternal embryonic leucine zipper kinase (Homo sapiens) (UniProt Q14680)
[29] = target: Mitogen-activated protein kinase kinase kinase 4 (Homo sapiens) (UniProt Q9Y6R4)
[30] = target: NUAK family SNF1-like kinase 1 (Homo sapiens) (UniProt O60285)
[31] = target: Cyclin-dependent kinase 9 (Homo sapiens) (UniProt P50750)
[32] = target: Serine/threonine-protein kinase PAK 4 (Homo sapiens) (UniProt O96013)
[33] = target: Protein kinase C theta type (Homo sapiens) (UniProt Q04759)
[34] = target: Serine/threonine-protein kinase Sgk2 (Homo sapiens) (UniProt Q9HBY8)
[35] = system: Tyrosine-protein kinase ABL1 (Homo sapiens), P00519 [F317L]
[36] = target: Mitogen-activated protein kinase kinase kinase 15 (Homo sapiens) (UniProt Q6ZN16)
[37] = target: Tyrosine-protein kinase Fyn (Homo sapiens) (UniProt P06241)
[38] = target: Tyrosine-protein kinase Lyn (Homo sapiens) (UniProt P07948)
[39] = system: Epidermal growth factor receptor (Homo sapiens), P00533 [L858R]
[40] = target: Ribosomal protein S6 kinase alpha-6 (Homo sapiens) (UniProt Q9UK32)
[41] = target: MAP kinase-activated protein kinase 5 (Homo sapiens) (UniProt Q8IW41)
[42] = target: Serine/threonine-protein kinase MARK1 (Homo sapiens) (UniProt Q9P0L2)
[43] = target: Mitogen-activated protein kinase kinase kinase 5 (Homo sapiens) (UniProt Q99683)
[44] = target: Serine/threonine-protein kinase DCLK1 (Homo sapiens) (UniProt O15075)
[45] = target: Activin receptor type-2A (Homo sapiens) (UniProt P27037)
Chain of Activin receptor type-2A (Homo sapiens) (P27037 whole entry): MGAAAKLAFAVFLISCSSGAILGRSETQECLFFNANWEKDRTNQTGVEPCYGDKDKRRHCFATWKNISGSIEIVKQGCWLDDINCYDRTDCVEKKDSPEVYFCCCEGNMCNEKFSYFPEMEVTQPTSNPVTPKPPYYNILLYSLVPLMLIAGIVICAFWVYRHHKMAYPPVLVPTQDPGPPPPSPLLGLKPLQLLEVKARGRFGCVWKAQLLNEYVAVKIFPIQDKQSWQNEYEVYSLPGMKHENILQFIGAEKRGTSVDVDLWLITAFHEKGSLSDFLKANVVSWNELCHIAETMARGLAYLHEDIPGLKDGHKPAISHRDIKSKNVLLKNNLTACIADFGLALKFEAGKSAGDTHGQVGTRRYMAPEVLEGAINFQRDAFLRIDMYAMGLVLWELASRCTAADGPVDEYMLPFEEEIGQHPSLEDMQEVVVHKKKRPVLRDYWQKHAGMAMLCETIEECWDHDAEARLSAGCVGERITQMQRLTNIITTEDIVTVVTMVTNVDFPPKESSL

Chain of Mitogen-activated protein kinase 14 (Homo sapiens) (Q16539 whole entry): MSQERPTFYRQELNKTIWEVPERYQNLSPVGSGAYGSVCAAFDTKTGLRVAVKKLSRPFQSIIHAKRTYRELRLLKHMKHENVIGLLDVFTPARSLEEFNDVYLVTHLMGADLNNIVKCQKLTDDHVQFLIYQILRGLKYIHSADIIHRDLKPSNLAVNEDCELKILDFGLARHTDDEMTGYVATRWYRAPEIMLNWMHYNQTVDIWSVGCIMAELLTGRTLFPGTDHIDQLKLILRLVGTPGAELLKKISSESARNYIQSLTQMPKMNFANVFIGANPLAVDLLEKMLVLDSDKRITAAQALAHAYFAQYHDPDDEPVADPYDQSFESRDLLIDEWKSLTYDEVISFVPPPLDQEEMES
Chain of Ephrin type-A receptor 5 (Homo sapiens) (P54756 whole entry): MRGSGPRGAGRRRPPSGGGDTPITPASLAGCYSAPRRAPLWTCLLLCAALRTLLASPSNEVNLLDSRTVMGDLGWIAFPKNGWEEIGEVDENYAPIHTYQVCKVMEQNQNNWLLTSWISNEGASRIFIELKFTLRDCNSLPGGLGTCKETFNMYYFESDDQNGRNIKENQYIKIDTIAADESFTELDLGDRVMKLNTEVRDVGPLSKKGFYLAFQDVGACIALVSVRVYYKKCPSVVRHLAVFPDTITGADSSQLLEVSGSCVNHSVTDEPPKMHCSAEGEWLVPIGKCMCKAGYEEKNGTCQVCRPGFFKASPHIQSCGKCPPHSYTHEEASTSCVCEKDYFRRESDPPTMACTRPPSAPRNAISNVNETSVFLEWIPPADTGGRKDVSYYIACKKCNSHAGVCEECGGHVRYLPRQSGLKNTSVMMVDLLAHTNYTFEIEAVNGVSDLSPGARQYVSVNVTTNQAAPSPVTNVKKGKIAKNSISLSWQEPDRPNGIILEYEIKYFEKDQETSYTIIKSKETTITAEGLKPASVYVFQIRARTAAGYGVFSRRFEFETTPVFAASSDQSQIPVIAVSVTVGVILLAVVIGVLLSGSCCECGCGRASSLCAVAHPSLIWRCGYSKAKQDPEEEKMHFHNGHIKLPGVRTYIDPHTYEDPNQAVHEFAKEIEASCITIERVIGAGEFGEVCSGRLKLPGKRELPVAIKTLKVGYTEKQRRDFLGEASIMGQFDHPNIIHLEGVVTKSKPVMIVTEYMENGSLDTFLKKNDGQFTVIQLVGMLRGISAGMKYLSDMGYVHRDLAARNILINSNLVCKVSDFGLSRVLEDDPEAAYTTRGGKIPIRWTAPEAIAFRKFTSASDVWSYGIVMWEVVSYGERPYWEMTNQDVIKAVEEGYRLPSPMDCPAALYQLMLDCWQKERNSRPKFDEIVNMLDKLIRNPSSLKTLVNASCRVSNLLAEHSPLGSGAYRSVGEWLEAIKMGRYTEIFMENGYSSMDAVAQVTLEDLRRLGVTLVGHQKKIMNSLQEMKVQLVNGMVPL
Chain of Mitogen-activated protein kinase kinase kinase 15 (Homo sapiens) (Q6ZN16 whole entry): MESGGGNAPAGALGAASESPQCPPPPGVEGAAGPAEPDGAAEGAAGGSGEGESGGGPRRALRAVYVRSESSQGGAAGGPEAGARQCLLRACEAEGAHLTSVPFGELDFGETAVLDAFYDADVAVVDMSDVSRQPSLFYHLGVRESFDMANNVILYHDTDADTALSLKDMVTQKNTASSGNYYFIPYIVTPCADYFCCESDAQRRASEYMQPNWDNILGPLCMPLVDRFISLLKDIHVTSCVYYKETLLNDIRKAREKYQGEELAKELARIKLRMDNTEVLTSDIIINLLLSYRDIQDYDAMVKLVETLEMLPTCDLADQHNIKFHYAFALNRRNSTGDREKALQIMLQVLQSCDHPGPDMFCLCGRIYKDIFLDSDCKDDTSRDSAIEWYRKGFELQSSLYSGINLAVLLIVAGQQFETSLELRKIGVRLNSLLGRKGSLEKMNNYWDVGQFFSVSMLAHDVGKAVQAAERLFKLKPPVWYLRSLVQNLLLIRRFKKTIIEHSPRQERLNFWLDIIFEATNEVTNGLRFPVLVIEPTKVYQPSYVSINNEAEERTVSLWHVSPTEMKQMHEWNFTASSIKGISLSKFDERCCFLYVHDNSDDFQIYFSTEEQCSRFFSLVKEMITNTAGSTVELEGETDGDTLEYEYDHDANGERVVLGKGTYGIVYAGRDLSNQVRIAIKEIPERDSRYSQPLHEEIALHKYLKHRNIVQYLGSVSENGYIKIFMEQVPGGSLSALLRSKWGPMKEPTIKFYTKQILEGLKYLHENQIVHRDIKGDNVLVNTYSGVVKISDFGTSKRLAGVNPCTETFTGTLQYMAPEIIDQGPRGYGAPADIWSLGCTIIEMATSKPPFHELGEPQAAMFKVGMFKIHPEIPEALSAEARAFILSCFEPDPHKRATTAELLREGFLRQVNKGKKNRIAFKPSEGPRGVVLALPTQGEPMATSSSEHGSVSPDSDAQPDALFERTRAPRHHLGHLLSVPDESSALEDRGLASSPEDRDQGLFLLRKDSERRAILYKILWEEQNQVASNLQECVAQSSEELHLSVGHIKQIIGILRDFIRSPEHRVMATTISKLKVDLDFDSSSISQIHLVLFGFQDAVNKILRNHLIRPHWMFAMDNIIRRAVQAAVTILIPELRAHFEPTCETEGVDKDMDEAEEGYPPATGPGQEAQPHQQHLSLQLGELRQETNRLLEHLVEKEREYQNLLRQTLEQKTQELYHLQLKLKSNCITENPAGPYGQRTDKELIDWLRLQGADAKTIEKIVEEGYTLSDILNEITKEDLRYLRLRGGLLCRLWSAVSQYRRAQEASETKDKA
Chain of Protein kinase C theta type (Homo sapiens) (Q04759 whole entry, looked up): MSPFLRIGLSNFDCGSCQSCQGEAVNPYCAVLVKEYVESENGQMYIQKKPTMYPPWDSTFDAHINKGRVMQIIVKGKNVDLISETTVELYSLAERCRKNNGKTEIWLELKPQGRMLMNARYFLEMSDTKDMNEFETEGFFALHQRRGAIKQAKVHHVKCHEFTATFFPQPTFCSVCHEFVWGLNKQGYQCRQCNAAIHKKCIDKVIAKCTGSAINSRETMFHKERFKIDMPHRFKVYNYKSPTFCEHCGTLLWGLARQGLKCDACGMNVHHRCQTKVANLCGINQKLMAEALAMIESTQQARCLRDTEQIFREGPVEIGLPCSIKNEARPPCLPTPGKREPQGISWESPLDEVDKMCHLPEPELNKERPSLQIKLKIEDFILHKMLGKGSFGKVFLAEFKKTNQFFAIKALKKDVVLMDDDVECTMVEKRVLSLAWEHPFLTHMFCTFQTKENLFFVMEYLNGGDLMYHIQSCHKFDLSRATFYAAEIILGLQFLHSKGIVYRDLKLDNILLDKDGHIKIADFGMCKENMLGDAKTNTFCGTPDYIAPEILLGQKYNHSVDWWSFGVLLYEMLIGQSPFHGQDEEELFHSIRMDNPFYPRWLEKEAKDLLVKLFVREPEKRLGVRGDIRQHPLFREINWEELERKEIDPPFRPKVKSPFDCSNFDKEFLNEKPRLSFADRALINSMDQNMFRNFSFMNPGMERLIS
Chain of Glycogen synthase kinase-3 alpha (Homo sapiens) (P49840 2-483 limits assumed): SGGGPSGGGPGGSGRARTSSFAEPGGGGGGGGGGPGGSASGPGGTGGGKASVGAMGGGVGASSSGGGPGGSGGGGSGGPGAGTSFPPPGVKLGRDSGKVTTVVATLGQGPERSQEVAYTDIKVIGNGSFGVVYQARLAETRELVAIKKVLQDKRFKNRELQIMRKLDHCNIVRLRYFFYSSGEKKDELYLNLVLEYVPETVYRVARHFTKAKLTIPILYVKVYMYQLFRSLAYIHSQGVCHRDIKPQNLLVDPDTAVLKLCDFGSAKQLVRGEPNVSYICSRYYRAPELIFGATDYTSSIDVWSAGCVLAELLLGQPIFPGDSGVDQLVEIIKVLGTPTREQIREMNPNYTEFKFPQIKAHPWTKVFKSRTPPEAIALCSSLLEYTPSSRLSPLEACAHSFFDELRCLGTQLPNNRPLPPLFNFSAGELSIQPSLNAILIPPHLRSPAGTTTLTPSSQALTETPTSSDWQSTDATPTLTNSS
Chain of Maternal embryonic leucine zipper kinase (Homo sapiens) (Q14680 whole entry, looked up): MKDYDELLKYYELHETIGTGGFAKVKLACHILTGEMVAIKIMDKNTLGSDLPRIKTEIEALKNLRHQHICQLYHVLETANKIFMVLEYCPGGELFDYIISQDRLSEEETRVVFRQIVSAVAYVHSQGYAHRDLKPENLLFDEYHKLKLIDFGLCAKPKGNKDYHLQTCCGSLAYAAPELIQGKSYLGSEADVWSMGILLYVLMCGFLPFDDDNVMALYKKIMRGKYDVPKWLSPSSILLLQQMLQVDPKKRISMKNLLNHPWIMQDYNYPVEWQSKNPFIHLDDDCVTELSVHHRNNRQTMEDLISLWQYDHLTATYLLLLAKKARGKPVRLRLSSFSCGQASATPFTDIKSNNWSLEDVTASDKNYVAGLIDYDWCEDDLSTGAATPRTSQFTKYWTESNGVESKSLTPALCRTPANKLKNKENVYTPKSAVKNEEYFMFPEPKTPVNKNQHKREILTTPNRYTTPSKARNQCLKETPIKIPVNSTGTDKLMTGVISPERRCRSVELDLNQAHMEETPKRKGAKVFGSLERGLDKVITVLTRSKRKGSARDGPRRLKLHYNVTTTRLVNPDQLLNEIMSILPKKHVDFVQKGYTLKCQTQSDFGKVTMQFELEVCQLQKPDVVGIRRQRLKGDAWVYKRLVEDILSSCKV

`Cc1cc(-n2nc(Cc3cc(F)cc(C(F)(F)F)c3)nc2C)ccc1C(N)=O` [TP-024] showed a residual activity [1] of 83%, a residual activity [2] of 100% and a residual activity [3] of 87%. It also gave a residual activity [4] of 100%, a residual activity [5] of 92% and a residual activity [6] of 100%. It also gave a residual activity [7] of 92%, a residual activity [8] of 100% and a residual activity [9] of 78%. For the same compound, the residual activity [10] was 82%, the residual activity [11] was 94% and the residual activity [12] was 97%. For the same compound, the residual activity [13] was 100%, the residual activity [14] was 95% and the residual activity [15] was 100%. The residual activity [16] was 100%, the residual activity [17] was 94% and the residual activity [18] was 100%. For the same compound, the residual activity [19] was 100%, the residual activity [20] was 100% and the residual activity [21] was 94%. The residual activity [22] was 100%, the residual activity [23] was 100% and the residual activity [24] was 81%. For the same compound, the residual activity [25] was 100%, the residual activity [26] was 99% and the residual activity [27] was 100%. The residual activity [28] was 100%, the residual activity [29] was 98% and the residual activity [30] was 100%. It also gave a residual activity [31] of 100%, a residual activity [32] of 100% and a residual activity [33] of 100%. The residual activity [34] was 100%, the residual activity [35] was 100% and the residual activity [36] was 100%. For the same compound, the residual activity [37] was 100%, the residual activity [38] was 100% and the residual activity [39] was 100%. For the same compound, the residual activity [40] was 89%, the residual activity [41] was 100% and the residual activity [42] was 100%. For the same compound, the residual activity [43] was 100%, the residual activity [44] was 100% and the residual activity [45] was 100%.

`Cc1nc(Cc2cccc(C(F)(F)F)c2)sc1-c1ccc(C(N)=O)nc1` [TP-024n] was tested, and the residual activity [1] was 64%, the residual activity [2] was 82% and the residual activity [3] was 72%. The residual activity [4] was 100%, the residual activity [5] was 92% and the residual activity [6] was 100%. The residual activity [7] was 100%, the residual activity [8] was 28% and the residual activity [9] was 87%. For the same compound, the residual activity [10] was 76%, the residual activity [11] was 69% and the residual activity [12] was 82%. For the same compound, the residual activity [13] was 100%, the residual activity [14] was 100% and the residual activity [15] was 100%. It also gave a residual activity [16] of 100%, a residual activity [17] of 100% and a residual activity [18] of 100%. The residual activity [19] was 100%, the residual activity [20] was 85% and the residual activity [21] was 88%. The residual activity [22] was 100%, the residual activity [23] was 100% and the residual activity [24] was 75%. For the same compound, the residual activity [25] was 100%, the residual activity [26] was 73% and the residual activity [27] was 100%. The residual activity [28] was 100%, the residual activity [29] was 72% and the residual activity [30] was 86%. For the same compound, the residual activity [31] was 100%, the residual activity [32] was 96% and the residual activity [33] was 94%. It also gave a residual activity [34] of 95%, a residual activity [35] of 93% and a residual activity [36] of 100%. For the same compound, the residual activity [37] was 100%, the residual activity [38] was 95% and the residual activity [39] was 100%. For the same compound, the residual activity [40] was 91%, the residual activity [41] was 100% and the residual activity [42] was 90%. It also gave a residual activity [43] of 100%, a residual activity [44] of 81% and a residual activity [45] of 85%.
